Assay: In vitro stability of conjugates in mouse serum (LC-MS: succinimide ring hydrolysis, deconjugation)
Format: in vitro ADME
Settings: conjugates of the compound with anti-HER2 mAb2
Procedure: The stability of the bond formed between maleimide containing payloads and Cys residues of the antibody is enhanced by the hydrolysis of the succinimide ring formed in this reaction. The effects of succinimide ring hydrolysis on the stability of antibody conjugates prepared with agonist compounds of the invention were studied after in vitro incubation in mouse serum. Mass changes resulting from payload deconjugation and the hydrolysis of the succinimide ring of maleimide payloads conjugated to antibodies were monitored by LC-MS. The hydrolysis of the succinimide ring has been reported to be stimulated by certain conditions such as high pH, high temperature, or high salts (J. Am. Chem. Soc. 1955, 77: 3922; Biochemistry 1976, 15: 2836; Biochem. J. 1979, 179: 191-197; J Pharm Sci. 1984, 73:1767-1771; Bioorg. Med. Chem. Lett. 17: 6286-6289, 2007). To probe the in vitro stability of conjugates, anti-HER2 antibody mAb2 conjugates were incubated at 37° C. in 50-70% mouse serum. […] The light chain, heavy chain Fab, and heavy chain Fc fragments were then analyzed by ESI-MS. The relative populations of deconjugated antibody, conjugates with attached payload with hydrolyzed succinimide ring, and conjugates with attached payload with intact succinimide ring, were calculated from the relative MS intensities of the corresponding conjugate species. […]

| conjugate stability (deconjugation, succinimide ring hydrolysis) | Structure (SMILES) |
| --- | --- |
| improved conjugate stability | CCCCCNc1nc(N)nc2ccn(Cc3ccc(CN4CCN(CCN5C(=O)C=CC5=O)CC4)cc3OC)c12 [Compound C-5, 1-(2-(4-(4-((2-amino-4-(pentylamino)-5H-pyrrolo[3,2-d]pyrimidin-5-yl)methyl)-3-methoxybenzyl)piperazin-1-yl)ethyl)-1H-pyrrole-2,5-dione] |
| improved conjugate stability | CCCCCNc1nc(N)nc2ccn(Cc3ccc(CN4CCN(C(=O)CCOCCOCCNC(=O)CN5C(=O)C=CC5=O)CC4)cc3OC)c12 [Compound C-21, N-(2-(2-(3-(4-(4-((2-amino-4-(pentylamino)-5H-pyrrolo[3,2-d]pyrimidin-5-yl)methyl)-3-methoxybenzyl)piperazin-1-yl)-3-oxopropoxy)ethoxy)ethyl)-2-(2,5-dioxo-2,5-dihydro-1H-pyrrol-1-yl)acetamide] |

— patent publication US10973826B2, “Antibody conjugates comprising toll-like receptor agonist” (Novartis AG, priority 2015, dated 2021)
